ChEMBL document CHEMBL4152349, “A Fragment-Derived Clinical Candidate for Antagonism of X-Linked and Cellular Inhibitor of Apoptosis Proteins: 1-(6-[(4-Fluorophenyl)methyl]-5-(hydroxymethyl)-3,3-dimethyl-1 H,2 H,3 H-pyrrolo[3,2- b]pyridin-1-yl)-2-[(2 R,5 …” (J Med Chem, 2018)
pIC50: −log10 of the molar value. Active and inactive are the calls of the source. The calls are words filed in the database; no cut-off is given here.

How the values were obtained:
[1] = in vivo; settings: cynomolgus monkey, po, 5 mg/kg
[2] = in vivo; settings: cynomolgus monkey, plasma, iv, 1 mg/kg
[3] = system: Cynomolgus monkey; test: Cardiotoxicity in cynomolgus monkey assessed as effect on QT interval at 100 mg/kg, po administered as single dose; type: toxicity, organism-based, Macaca fascicularis; settings: in vivo
[4] = Plasma clearance in Balb/c mouse at 5 mg/kg, iv or 10 mg/kg, po by UHPLC and ESI mass spectrometry; type: ADME, organism-based
[5] = in vivo; settings: cynomolgus monkey, iv, 1 mg/kg
[6] = Oral bioavailability in Balb/c mouse at 10 mg/kg by UHPLC and ESI mass spectrometry; type: ADME, organism-based; settings: in vivo
[7] = Volume of distribution at steady state in Sprague-Dawley rat at 5 mg/kg, iv or 10 mg/kg, po by UHPLC and ESI mass spectrometry; type: ADME, organism-based; settings: in vivo, read-out: Vdss
[8] = Volume of distribution at steady state in Balb/c mouse at 5 mg/kg, iv or 10 mg/kg, po by UHPLC and ESI mass spectrometry; type: ADME, organism-based; settings: in vivo, read-out: Vdss
[9] = Cmax in Sprague-Dawley rat at 10 mg/kg, po by UHPLC and ESI mass spectrometry; type: ADME, organism-based; design: dose 10 mg/kg, route oral; settings: in vivo
[10] = Chromatographic hydrophobicity index, log D of the compound at pH 7.4 by HPLC method; type: physicochemical; settings: buffer
[11] = in vivo; settings: cynomolgus monkey, po, 60 mg/kg
[12] = Cmax in cynomolgus monkey at 5 mg/kg, po by UHPLC and ESI mass spectrometry; type: ADME, organism-based, Macaca fascicularis; design: dose 5 mg/kg, route oral; settings: in vivo
[13] = Cmax in Balb/c mouse at 10 mg/kg, po by UHPLC and ESI mass spectrometry; type: ADME, organism-based; design: dose 10 mg/kg, route oral; settings: in vivo
[14] = Plasma clearance in Sprague-Dawley rat at 5 mg/kg, iv or 10 mg/kg, po by UHPLC and ESI mass spectrometry; type: ADME, organism-based
[15] = Oral bioavailability in Sprague-Dawley rat at 10 mg/kg by UHPLC and ESI mass spectrometry; type: ADME, organism-based; settings: in vivo
[16] = Drug level in tumor of human MDA-MB-231 cells xenografted Balb/c SCID mouse at 20 mg/kg, po administered as single dose measured up to 72 hrs by UPLC analysis; type: ADME, organism-based, Neoplasm; settings: in vivo
[17] = system: MDA-MB-231; test: cells; settings: Homo sapiens, MDA-MB-231, 72 h
[18] = Drug level in cynomolgus monkey hepatocytes treated with 1-(6-(4-fluorobenzyl)-3,3-dimethyl-2,3-dihydro-1H-pyrrolo[3,2-b]pyridin-1-yl)-2-((2R,5R)-5-methyl-2-(((R)-3-methylmorpholino)methyl)piperazin-1-yl)ethanone at 10 uM up to 90 mins by LC-MS analysis; type: ADME, cell-based, Macaca fascicularis, Hepatocyte
[19] = Drug level in human hepatocytes treated with 1-(6-(4-fluorobenzyl)-3,3-dimethyl-2,3-dihydro-1H-pyrrolo[3,2-b]pyridin-1-yl)-2-((2R,5R)-5-methyl-2-(((R)-3-methylmorpholino)methyl)piperazin-1-yl)ethanone at 10 uM up to 90 mins by LC-MS analysis; type: ADME, cell-based, Hepatocyte
[20] = Drug level in CD-1 mouse hepatocytes treated with 1-(6-(4-fluorobenzyl)-3,3-dimethyl-2,3-dihydro-1H-pyrrolo[3,2-b]pyridin-1-yl)-2-((2R,5R)-5-methyl-2-(((R)-3-methylmorpholino)methyl)piperazin-1-yl)ethanone at 10 uM up to 90 mins by LC-MS analysis; type: ADME, cell-based, Hepatocyte
[21] = target: hERG (KCNH2) (Homo sapiens, UniProt Q12809); test: in vitro; settings: CHO-K1 cells expressing human ERG
[22] = target: CYP3A4 (Homo sapiens, UniProt P08684); test: in vitro; settings: human CYP3A4 supersomes
[23] = Drug metabolism in human hepatocytes assessed as oxidation metabolite formation at 10 uM up to 90 mins by LC-MS analysis; type: ADME, cell-based, Hepatocyte
[24] = Oral bioavailability in Sprague-Dawley rat at 5 mg/kg by UHPLC and ESI mass spectrometry; type: ADME, organism-based; settings: in vivo
[25] = Volume of distribution at steady state in Sprague-Dawley rat at 1 mg/kg, iv or 5 mg/kg, po by UHPLC and ESI mass spectrometry; type: ADME, organism-based; settings: in vivo, read-out: Vdss
[26] = Drug metabolism in Sprague-Dawley rat hepatocytes assessed as 2-((R)-1-amino-3-((R)-3-methylmorpholino)propan-2-ylamino)-1-(6-(4-fluorobenzyl)-3,3-dimethyl-2,3-dihydro-1H-pyrrolo[3,2-b]pyridin-1-yl)ethanone formation at 10 uM up to 90 mins by LC-MS analysis; type: ADME, cell-based, Hepatocyte
[27] = Cmax in Sprague-Dawley rat at 5 mg/kg, po by UHPLC and ESI mass spectrometry; type: ADME, organism-based; design: dose 5 mg/kg, route oral; settings: in vivo
[28] = Drug metabolism in cynomolgus monkey hepatocytes assessed as oxidation metabolite formation at 10 uM up to 90 mins by LC-MS analysis; type: ADME, cell-based, Macaca fascicularis, Hepatocyte
[29] = Drug metabolism in Sprague-Dawley rat hepatocytes assessed as 2-((2S,5R)-2-(aminomethyl)-5-methylpiperazin-1-yl)-1-(6-(4-fluorobenzyl)-3,3-dimethyl-2,3-dihydro-1H-pyrrolo[3,2-b]pyridin-1-yl)ethanone formation at 10 uM up to 90 mins by LC-MS analysis; type: ADME, cell-based, Hepatocyte
[30] = Drug metabolism in CD-1 mouse hepatocytes assessed as oxidation metabolite formation at 10 uM up to 90 mins by LC-MS analysis; type: ADME, cell-based, Hepatocyte
[31] = Plasma clearance in Sprague-Dawley rat at 1 mg/kg, iv or 5 mg/kg, po by UHPLC and ESI mass spectrometry; type: ADME, organism-based
[32] = system: Cynomolgus monkey; test: Plasma clearance in cynomolgus monkey at 1 mg/kg, iv or 5 mg/kg, po relative to liver blood flow; type: ADME, organism-based, Macaca fascicularis; settings: in vivo
[33] = Stability in cynomolgus monkey liver microsomes at 10 uM up to 90 mins in presence of NADPH by LC/MS analysis; type: ADME, Macaca fascicularis, microsome
[34] = Drug metabolism in Sprague-Dawley rat hepatocytes assessed as oxidation metabolite formation at 10 uM up to 90 mins by LC-MS analysis; type: ADME, cell-based, Hepatocyte
[35] = Permeability in human Caco2 cells at 10 uM after 1 hr; type: ADME, cell-based; settings: Caco-2, read-out: permeability
[36] = Drug metabolism in Sprague-Dawley rat hepatocytes assessed as 1-(6-(4-fluorobenzyl)-3,3-dimethyl-2,3-dihydro-1H-pyrrolo[3,2-b]pyridin-1-yl)-2-((2S,5R)-2-((2-hydroxyethylamino)methyl)-5-methylpiperazin-1-yl)ethanone formation at 10 uM up to 90 mins by LC-MS analysis; type: ADME, cell-based, Hepatocyte
[37] = system: MDA-MB-231; test: Antitumor activity against human MDA-MB-231 cells xenografted in Balb/c mouse assessed as tumor growth inhibition at 20 mg/kg, po qd after 1 to 22 days; type: functional, organism-based
[38] = system: Mus musculus; test: In vivo inhibition of XIAP interaction with SMAC in human MDA-MB-231 cells xenografted in Balb/c SCID mouse at 20 mg/kg, po administered as single dose measured up to 72 hrs by MSD plate-based assay; type: functional, organism-based
[39] = system: Mus musculus; test: Reduction in cIAP1 level in tumor of Balb/c SCID mouse xenografted with human MDA-MB-231 cells at 20 mg/kg, po administered as single dose measured up to 72 hrs by MSD plate-based assay; type: functional, organism-based
[40] = system: MDA-MB-231; test: Antitumor activity against human MDA-MB-231 cells xenografted in Balb/c mouse assessed as tumor growth inhibition at 16 mg/kg, po qd after 1 to 22 days; type: functional, organism-based

Sequence of CYP3A4 (P08684 whole entry): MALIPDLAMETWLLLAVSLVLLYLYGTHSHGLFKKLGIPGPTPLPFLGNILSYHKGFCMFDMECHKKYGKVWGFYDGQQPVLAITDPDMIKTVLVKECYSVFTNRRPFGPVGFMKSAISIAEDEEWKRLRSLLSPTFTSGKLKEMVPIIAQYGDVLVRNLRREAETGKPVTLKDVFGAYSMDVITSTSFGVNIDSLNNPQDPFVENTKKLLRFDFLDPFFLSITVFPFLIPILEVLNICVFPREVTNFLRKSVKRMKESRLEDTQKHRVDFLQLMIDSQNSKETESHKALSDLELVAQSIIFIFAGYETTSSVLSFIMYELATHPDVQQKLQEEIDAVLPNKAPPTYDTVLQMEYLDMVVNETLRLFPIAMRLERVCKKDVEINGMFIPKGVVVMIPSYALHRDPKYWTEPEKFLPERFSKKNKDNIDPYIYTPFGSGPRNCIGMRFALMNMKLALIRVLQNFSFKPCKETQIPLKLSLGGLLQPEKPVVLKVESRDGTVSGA
Sequence of hERG (KCNH2) (Q12809 whole entry): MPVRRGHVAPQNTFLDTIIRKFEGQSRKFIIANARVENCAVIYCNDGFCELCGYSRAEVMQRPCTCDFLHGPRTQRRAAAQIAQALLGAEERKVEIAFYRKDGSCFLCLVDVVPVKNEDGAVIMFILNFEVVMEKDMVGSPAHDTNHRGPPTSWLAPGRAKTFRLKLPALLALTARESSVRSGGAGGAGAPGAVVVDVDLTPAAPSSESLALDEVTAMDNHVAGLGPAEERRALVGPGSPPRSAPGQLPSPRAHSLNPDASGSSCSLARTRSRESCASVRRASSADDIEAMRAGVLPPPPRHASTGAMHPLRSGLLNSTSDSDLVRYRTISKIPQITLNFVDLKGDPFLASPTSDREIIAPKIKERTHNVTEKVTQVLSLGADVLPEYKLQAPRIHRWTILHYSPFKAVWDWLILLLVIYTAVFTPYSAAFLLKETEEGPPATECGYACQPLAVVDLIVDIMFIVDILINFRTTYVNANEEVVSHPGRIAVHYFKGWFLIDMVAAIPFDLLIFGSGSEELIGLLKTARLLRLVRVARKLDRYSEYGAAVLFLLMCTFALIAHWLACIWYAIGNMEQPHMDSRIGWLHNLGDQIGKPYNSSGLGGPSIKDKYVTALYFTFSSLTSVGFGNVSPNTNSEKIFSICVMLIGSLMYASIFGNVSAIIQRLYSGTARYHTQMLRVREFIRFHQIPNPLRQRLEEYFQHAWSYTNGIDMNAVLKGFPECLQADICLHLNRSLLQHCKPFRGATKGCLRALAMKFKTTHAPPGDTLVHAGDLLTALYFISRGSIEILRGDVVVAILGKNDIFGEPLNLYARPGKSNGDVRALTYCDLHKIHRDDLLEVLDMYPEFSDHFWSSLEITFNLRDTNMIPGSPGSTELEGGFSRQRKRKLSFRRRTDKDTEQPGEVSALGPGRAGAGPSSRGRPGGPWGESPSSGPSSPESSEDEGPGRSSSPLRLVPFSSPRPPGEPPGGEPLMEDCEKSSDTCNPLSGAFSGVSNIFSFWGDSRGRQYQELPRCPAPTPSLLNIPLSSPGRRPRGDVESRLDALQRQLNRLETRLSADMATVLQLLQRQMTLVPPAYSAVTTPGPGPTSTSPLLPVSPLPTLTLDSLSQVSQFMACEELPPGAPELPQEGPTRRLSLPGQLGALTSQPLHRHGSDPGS

C[C@@H]1CN(CC(=O)N2CC(C)(C)c3nc(CO)c(Cc4ccc(F)cc4)cc32)[C@@H](CN2CCOC[C@H]2C)CN1 [ASTX-660]
bioavailability [1]: 12%
clearance [2]: 16 mL/min/kg
Activity [3]: Non-Toxic
clearance [4]: 41 mL/min/kg
Vd [5]: 6 L/kg
bioavailability [6]: 34%
Vd [7]: 9.3 L/kg
Vd [8]: 2.7 L/kg
Cmax [9]: 117 ng/mL
chromatographic logD [10]: 3.1
bioavailability [11]: 50%
Cmax [12]: 137 ng/mL
Cmax [13]: 433 ng/mL
clearance [14]: 38 mL/min/kg
bioavailability [15]: 29%

C[C@@H]1CN(CC(=O)N2CC(C)(C)c3nc(CO)c(Cc4ccc(F)cc4)cc32)[C@@H](CN2CCOC[C@H]2C)CN1.Cl.Cl
Drug uptake [16]: Active

CN[C@@H](C)C(=O)N[C@H](C(=O)N1CCC[C@H]1c1nc(C(=O)c2ccc(F)cc2)cs1)C1CCCCC1 [LCL-161]
pIC50 [17]: 8.11

C[C@@H]1COCCN1C[C@@H](CN)NCC(=O)N1CC(C)(C)c2ncc(Cc3ccc(F)cc3)cc21
Drug uptake [18]: Active
Drug uptake [19]: Active
Drug uptake [20]: Active

C[C@@H]1CN(CC(=O)N2CC(C)(C)c3ncc(Cc4ccc(F)cc4)cc32)[C@@H](CN)CN1
Drug uptake [18]: Active
Drug uptake [19]: Active
Drug uptake [20]: Active

C[C@@H]1CN(CC(=O)N2CC(C)(C)c3[nH]c(=O)c(Cc4ccc(F)cc4)cc32)[C@@H](CN2[C@H](C)COC[C@H]2C)CN1
chromatographic logD [10]: 2.7

C[C@@H]1CN(CC(=O)N2CC(C)(C)c3nnc(Cc4ccc(F)cc4F)cc32)[C@@H](CN2Cc3cc(C#N)ccc3C2=O)CN1
pIC50 [17]: 8.28
inhibition at 10 min, 30 µM [21]: 19%
chromatographic logD [10]: 3
half-life at 40 min, 1 µM [22]: 42 min

C[C@@H]1CN(CC(=O)N2CC(C)(C)c3nc(CO)c(Cc4ccc(F)cc4)cc32)[C@@H](CN2[C@H](C)COC[C@H]2C)CN1
chromatographic logD [10]: 3.5

C[C@@H]1CN(CC(=O)N2CC(C)(C)c3cc(=O)n(Cc4ccc(F)cc4)cc32)[C@@H](CN2[C@H](C)COC[C@H]2C)CN1
chromatographic logD [10]: 2.4

C[C@@H]1CN(CC(=O)N2CC(C)(C)c3ncc([C@H](O)c4ccc(F)cc4)cc32)[C@@H](CN2[C@H](C)COC[C@H]2C)CN1
bioavailability [1]: 13%
bioavailability [6]: 31%

C[C@@H]1CN(CC(=O)N2CC(C)(C)c3ncc(Cc4ccc(F)cc4)cc32)[C@@H](CN2CCOC[C@H]2C)CN1
Drug metabolism [23]: Metabolite_Detected
bioavailability [24]: 24%
bioavailability [1]: 2%
clearance [2]: 17 mL/min/kg
Vd [25]: 12 L/kg
Drug metabolism [26]: Metabolite_Notdetected
Vd [5]: 3.7 L/kg
Cmax [27]: 47 ng/mL
Drug metabolism [28]: Metabolite_Detected
Drug metabolism [29]: Metabolite_Notdetected
Drug metabolism [30]: Metabolite_Detected
clearance [31]: 26 mL/min/kg
CL [32]: < 50%
Cmax [12]: 22 ng/mL
Stability [33]: Stable
Drug metabolism [34]: Metabolite_Notdetected
Papp at 1 h, 10 µM [35]: 1.1 ×10⁻⁶ cm/s
Drug metabolism [36]: Metabolite_Notdetected

C[C@@H]1CN(CC(=O)N2CC(C)(C)c3ncc(Cc4ccc(F)cc4)cc32)[C@@H](CNCCO)CN1
Drug uptake [18]: Active
Drug uptake [19]: Active
Drug uptake [20]: Active

C[C@@H]1CN(CC(=O)N2CC(C)(C)c3nc(CO)c(Cc4ccc(F)cc4)cc32)[C@@H](CN2CCOC[C@H]2C)CN1
TGI [37]: Active
Activity [38]: Active
Activity [39]: Active
TGI [40]: Active

C[C@@H]1CN(CC(=O)N2CC(C)(C)c3nnc(Cc4ccc(F)cc4)cc32)[C@@H](CN2Cc3ccccc3C2=O)CN1
pIC50 [17]: 7.80
inhibition at 10 min, 30 µM [21]: 12%
half-life at 40 min, 1 µM [22]: 38 min

C[C@@H]1CN(CC(=O)N2CC(C)(C)c3ncc([C@@H](O)c4ccc(F)cc4)cc32)[C@@H](CN2[C@H](C)COC[C@H]2C)CN1
bioavailability [1]: 13%
bioavailability [6]: 31%
chromatographic logD [10]: 2.9

C[C@@H]1CN(CC(=O)N2CC(C)(C)c3nnc(Cc4ccc(F)cc4F)cc32)[C@@H](CN2Cc3cc(F)ccc3C2=O)CN1
pIC50 [17]: 8.72
inhibition at 10 min, 30 µM [21]: 25%
chromatographic logD [10]: 2.6
half-life at 40 min, 1 µM [22]: 37 min

C[C@@H]1CN(CC(=O)N2CC(C)(C)c3nnc(Cc4ccc(F)cc4F)cc32)[C@@H](CN2Cc3ccc(C#N)cc3C2=O)CN1
pIC50 [17]: 7.85
inhibition at 10 min, 30 µM [21]: 18%
chromatographic logD [10]: 2.9
half-life at 40 min, 1 µM [22]: 34 min

C[C@@H]1CN(CC(=O)N2CC(C)(C)c3c2cc(Cc2ccc(F)cc2)c(=O)n3C)[C@@H](CN2[C@H](C)COC[C@H]2C)CN1
chromatographic logD [10]: 3.2

C[C@@H]1CN(CC(=O)N2CC(C)(C)c3nnc(Cc4ccc(F)cc4F)cc32)[C@@H](CN2Cc3c(F)cccc3C2=O)CN1
pIC50 [17]: 9.23
inhibition at 10 min, 30 µM [21]: 28%
chromatographic logD [10]: 2.7
half-life at 40 min, 1 µM [22]: > 70 min

C[C@@H]1CN(CC(=O)N2CC(C)(C)c3nnc(Cc4ccc(F)cc4F)cc32)[C@@H](CN2Cc3ccc(F)cc3C2=O)CN1
pIC50 [17]: 8.54
inhibition at 10 min, 30 µM [21]: 18%
chromatographic logD [10]: 3.1
half-life at 40 min, 1 µM [22]: 41 min
